Reference: ChEMBL document CHEMBL1132896, “Beta-casomorphins: substitution of phenylalanine with beta-homo phenylalanine increases the mu-type opioid receptor affinity” (Bioorg Med Chem Lett, 2000)
Non-standard residues stand in square brackets, D forms with d. Residues, ends and D or L forms follow the SMILES beside them. β3hF = N[C@H](CC(=O)O)Cc1ccccc1

Experiments:
[1] = target: T1, Mu-type opioid receptor (Rattus norvegicus, UniProt P33535); test: Compound was evaluated for the binding affinity of Opioid receptor mu 1 by displacing the radioligand [3H]DAMGO from rat brain membrane
[2] = target: T1, Mu-type opioid receptor; test: Inhibitory concentration against [3H]DAMGO binding to Opioid receptor mu 1 in rat brain membrane; format: cell membranes

T1 sequence (P33535 whole entry): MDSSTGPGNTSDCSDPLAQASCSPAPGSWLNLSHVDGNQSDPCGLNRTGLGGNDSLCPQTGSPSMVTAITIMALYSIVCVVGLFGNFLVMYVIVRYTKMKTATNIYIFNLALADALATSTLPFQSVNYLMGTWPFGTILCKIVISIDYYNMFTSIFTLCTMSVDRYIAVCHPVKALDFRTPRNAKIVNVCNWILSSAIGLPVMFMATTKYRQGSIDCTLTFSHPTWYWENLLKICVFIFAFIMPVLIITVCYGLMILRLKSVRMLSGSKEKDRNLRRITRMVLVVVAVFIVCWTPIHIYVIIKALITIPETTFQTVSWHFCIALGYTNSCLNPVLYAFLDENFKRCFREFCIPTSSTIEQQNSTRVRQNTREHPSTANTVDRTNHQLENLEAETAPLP

| Compound | Ki [1] [µM] | IC50 [2] [µM] |
| --- | --- | --- |
| CC[C@H](C)[C@H](NC(=O)[C@@H]1CCCN1C(=O)CNC(=O)[C@@H]1CCCN1C(=O)[C@H](Cc1ccccc1)NC(=O)[C@@H]1CCCN1C(=O)[C@@H](N)Cc1ccc(O)cc1)C(=O)O (H-YPFPGPI-OH) | 7.54 | 20 |
| N[C@@H](Cc1ccc(O)cc1)C(=O)N1CCC[C@H]1C(=O)N[C@H](CC(=O)N1CCC[C@H]1C(=O)NCC(=O)O)Cc1ccccc1 (H-YP[β3hF]PG-OH) | 0.72 | 2 |
| CC[C@H](C)[C@H](NC(=O)[C@@H]1CCCN1C(=O)CNC(=O)[C@@H]1CCCN1C(=O)C[C@H](Cc1ccccc1)NC(=O)[C@@H]1CCCN1C(=O)[C@@H](N)Cc1ccc(O)cc1)C(=O)O (H-YP[β3hF]PGPI-OH) | 1.44 | 4 |
| N[C@@H](Cc1ccc(O)cc1)C(=O)N1CCC[C@H]1C(=O)N[C@@H](Cc1ccccc1)C(=O)N1CCC[C@H]1C(=O)NCC(=O)O (H-YPFPG-OH) | 1.62 | 4.5 |
